Series [1] has as its system dimethylnitrosamine induced liver fibrosis. The following applies: rat, cited from earlier work.
The target of series [2] is T1, ALK5 T204D (kinase domain of human ALK5, amino acids 200-503) (Homo sapiens, UniProt P36897, T204D).
T1 construct: The kinase domain of human ALK5 (amino acids 200-503); made in house; host or cells: insect cells (baculovirus expression)
T1 sequence (P36897 200-503 T204D): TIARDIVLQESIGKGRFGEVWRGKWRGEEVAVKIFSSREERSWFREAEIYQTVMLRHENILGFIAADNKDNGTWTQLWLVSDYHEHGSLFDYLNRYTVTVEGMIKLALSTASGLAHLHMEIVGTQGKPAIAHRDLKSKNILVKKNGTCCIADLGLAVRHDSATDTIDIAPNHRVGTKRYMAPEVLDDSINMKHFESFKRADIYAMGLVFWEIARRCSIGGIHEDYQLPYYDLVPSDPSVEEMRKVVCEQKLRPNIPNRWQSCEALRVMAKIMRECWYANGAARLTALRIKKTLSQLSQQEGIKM
Briefly: ALK5 kinase activity, [33P] phosphate incorporation into casein. The series is classed as biochemical. The following applies: casein substrate, 1 μM unlabelled ATP. The procedure:
The kinase activity of ALK5 is assessed by measuring radiolabelled phosphate [33P] incorporation in to the generic substrate, casein. The kinase domain of human ALK5 (amino acids 200-503) is fused to an N-terminal histidine tag. The kinase activity of ALK5 is rendered constitutive via point mutation at amino acid 204 (threonine to aspartate modification, ALK5 T204D) and the kinase construct is engineered to be expressed from a baculovirus expression construct in insect cells. The purified, recombinantly-expressed histidine-tagged ALK5 T204D protein is dissolved at 5.4 mg/ml in 50 mM Tris-HCl pH 8.0, 150 mM NaCl, 5 mM DTT. ALK5 T204D is dissolved to 2.5 μg/ml in assay buffer (Assay buffer: 20 mM Tris-HCl pH 7.4, 10 mM MgCl2, 2 mM MnCl2) on the day of use.
Test compounds and reference compounds are dissolved in assay buffer without DTT containing 5% (v/v) DMSO. Stock solutions of test and reference compounds are diluted in assay buffer with DTT (1.25 mM) containing 4.5% (v/v) DMSO. 10 μl of test or reference compound are added to the appropriate wells of 96 well U-bottomed plate. Total enzyme activity is determined by measuring ALK5 T204D activity in the absence of ALK5 kinase inhibitor reference compounds. Non-specific binding (NSB) is determined by measuring the activity of ALK5 T204D in the presence of ALK5 kinase inhibitor reference compounds. 10 μl of dephosphorylated casein stock solution (dephosphorylated casein is dissolved in ddH2O at 20 mg/ml) is added per well (200 μg/well final assay concentration). 20 μl of ALK5 T204D (2.5 μg/ml solution) is added per well (50 ng/well final assay concentration). The plates are left to incubate at room temperature for 10 minutes.
10 μl of ATP mix is added to the well to initiate the reaction (0.66 nM [^33P]ATP/1 μM unlabelled ATP/well final assay concentration). The ATP mix is prepared as follows, unlabelled ATP (3 mM) is dissolved in ddH2O and pH adjusted to 7.4. The stock concentration of [^33P]ATP is 10 μCi/μl. The appropriate volume of [^33P]ATP is added to unlabelled ATP solution such that the final assay concentration per well is 0.1 μCi. Following addition of the ATP mix, the plates are incubated at room temperature for 50 minutes. The kinase reaction is terminated by the addition of 50 μL Stop Buffer (20 mM Tris-HCl pH 7.4, 10 mM EDTA).
75 μl/well from the reaction plate is transferred to a Multiscreen-IP plate (MultiScreen-IP plates are prepared by added 50 μL of 70% (v/v) ethanol per well and incubated for 5 minutes at room temperature. The ethanol is removed by aspiration via a MultiScreen HTS Vaccum Manifold unit (Millipore, Cat no: MSVMHT500). The plates are washed twice by adding 200 μl/well ddH2O). The MultiScreen-IP plate is incubated at room temperature for 30 minutes to allowing binding of casein to the plate. The MultiScreen-IP plates are washed three times by adding 200 μl/well 100 mM phosphoric acid solution and the gasket is carefully removed from the back of the MultiScreen-IP plate and the plate dried in the oven for 30 minutes. The MultiScreen-IP plate is backsealed, 50 μL of Microscint™20 is added, then the plates are topsealed and radiolabelled casein detected and quantified on a TopCount™ plate-reader using the ^33P scintillation protocol.

In series [3] the test system is bleomycin-induced pulmonary fibrosis. The following applies: bleomycin-treated rats; cited from earlier work.
[4] abbreviates: dimethylnitrosamine induced liver fibrosis, given therapeutically.

Regarding `c1ccc(-c2cc(-c3cn[nH]c3-c3ccccn3)ccn2)cc1` [GW6604], in series [1] (setting [4]), the “inhibition of extracellular matrix deposition” value is recorded as 60% and the “prevention of the death rate” value was 40%. In series [1] (during the 3 weeks treatment), the side effects entry is listed as “no obvious side effects”.

Consider `Cc1cccc(-c2nc(OCCc3c[nH]c4ccccc34)cc(-c3cccnc3)n2)n1` [Example 6, 3-{2-[2-(6-Methyl-pyridin-2-yl)-6-pyridin-3-yl-pyrimidin-4-yloxy]-ethyl}-1H-indole], for which, in series [2], the concentration for half-maximal inhibition (IC50) – broadly, the concentration needed to halve the response being measured – was 261 nM. On the same count and under the same terms, then `CC(C)N1CCN(C(=O)c2ccc(-c3cncc(-c4ccnc(-c5ccccn5)n4)c3)cc2)CC1` [Example 3, (4-Isopropyl-piperazin-1-yl)-{4-[5-(2-pyridin-2-yl-pyrimidin-4-yl)-pyridin-3-yl]-phenyl}-methanone], with 592 nM.

As for `Cc1cccc(-c2nc(OCc3ccccc3)cc(-c3cncc(-c4ccc(C(=O)N5CCN(C(C)C)CC5)cc4)c3)n2)n1` [Example 8, (4-{5-[6-Benzyloxy-2-(6-methyl-pyridin-2-yl)-pyrimidin-4-yl]-pyridin-3-yl}-phenyl)-(4-isopropyl-piperazin-1-yl)-methanone], the IC50 in series [2] is 265 nM. On the same count and under the same terms, to `CC(C)N1CCN(C(=O)c2ccc(-c3cncc(-c4cc(Cl)nc(-c5ccccn5)n4)c3)cc2)CC1` [Example 1, {4-[5-(6-Chloro-2-pyridin-2-yl-pyrimidin-4-yl)-pyridin-3-yl]-phenyl}-(4-isopropyl-piperazin-1-yl)-methanone] belongs 335 nM; to `CC(C)N1CCN(C(=O)c2ccc(-c3cncc(-c4cc(OCc5ccccc5)nc(-c5ccccn5)n4)c3)cc2)CC1` [Example 11, {4-[5-(6-Benzyloxy-2-pyridin-2-yl-pyrimidin-4-yl)-pyridin-3-yl]-phenyl}-(4-isopropyl-piperazin-1-yl)-methanone], 24 nM.

B1: Follistatin: an antagonist of activin signalling (protein, UniProt P19883 30-344, looked up)
Follistatin: GNCWLRQAKNGRCQVLYKTELSKEECCSTGRLSTSWTEEDVNDNTLFKWMIFNGGAPNCIPCKETCENVDCGPGKKCRMNKKNKPRCVCAPDCSNITWKGPVCGLDGKTYRNECALLKARCKEQPELEVQYQGRCKKTCRDVFCPGSSTCVVDQTNNAYCVTCNRICPEPASSEQYLCGNDGVTYSSACHLRKATCLLGRSIGLAYEGKCIKAKSCEDIQCTGGKKCLWDFKVGRGRCSLCDELCPDSKSDEPVCASDNATYASECAMKEAACSSGVLLEVKHSGSCNSISEDTEEEEEDEDQDYSFPISSILEW
Take B1: the “effect on lung fibrosis” value in series [3] is reported as “attenuated lung fibrosis”.

These data come from patent US8431578B2, “Organic compounds” (Novartis AG, priority 2008, dated 2013).
